Data as given in US7294457B2, “Direct binding assay for identifying inhibitors of HCV polymerase” (priority 2001, dated 2007).
Where “and” joins values, the source holds several entries; their conditions need not be identical. Equal values may be shown once.

Assays:
NS5BΔ21-His polymerase = biological target: T1, NS5BΔ21-His polymerase (Hepatitis C virus genotype 1b, UniProt P26663); test: Fluorescence anisotropy titration of probe with NS5BΔ21-His; assay type: binding, HCV; conditions: Kd of probe for NS5BΔ21-His
T1 construct: a variant that lacks the C-terminal 21 amino acids normally found on the mature NS5B; hexa-histidine (C); made in house; host or cells: E. coli JM109 (DE3), pET vector
Experimental: Titration of the probe with the enzyme was performed as follows:
(§1) The fluorescein labeled probe was diluted to the desired concentration in 20 mM Tris-HCl pH 7.5, 1 mM EDTA, 5 mM MgCl2, 1 mM DTT and 10% DMSO. The NS5BΔ21-His protein was serially diluted in 25 mM Tris-HCl pH 7.5, 300 mM NaCl, 5 mM DTT, 1 mM EDTA, 30% glycerol and 0.1% IGEPAL. Total volume of the reaction was 500 μL and final assay buffer was 20 mM Tris-HCl pH 7.5, 1 mM EDTA, 5 mM MgCl2, 1 mM DTT, 30 mM NaCl, 3% glycerol, 0.01% IGEPAL and 5% DMSO. Anisotropy measurements were performed on a SLM Aminco 8100 Spectrofluorometer equipped with a 450-W xenon arc lamp and a T-optics configuration. Excitation wavelength was at 493 nm and emission was monitored at 530 nm. In each anisotropy measurement, the parallel and perpendicular intensities of the background buffer solution was subtracted from the measured values of the sample and the anisotropy was calculated. Data were processed on SAS program (SAS Institute Inc., NC, USA) for a non linear regression to obtain the direct binding equilibrium constant and other parameters, and the plot of the regressed fit over the experimental data. An example of a titration curve obtained with probe (i) is shown on FIG. 1.
The usefulness of this polarization assay is evident when binding of compounds has to be studied under different conditions. For example, binding constants of the probes have been determined at different concentrations of salts and pH. FIGS. 5 to 8 show the binding curves of probe (i) in final NaCl concentrations ranging from 30 mM to 200 mM. […] All other reagents in the assay were as described in the standard protocol (Example 3). […] Studies at pH 6.5 were also performed to determine the Kd of the probe (i) at lower pH. For these assays, 20 mM Phosphate buffer pH 6.5 was used in place of Tris; all other reagents of the assay were as described in the 96-well Polarization assay (Example 4). […] Having established these Kd values under different experimental conditions, it is then trivial to determine what concentrations of probe and enzyme should be used to obtain 70% of binding of the probe with the equilibrium equation. Once these values are obtained, compounds of interest can easily be studied under the new conditions to determine their Kd values.

His-NS5BΔ21 polymerase = biological target: T2, His-NS5BΔ21 polymerase (Hepatitis C virus genotype 1b, UniProt P26663); test: Fluorescence anisotropy/polarization titration of probe with His-NS5BΔ21; assay type: binding, HCV; conditions: Kd of probe for N-terminally tagged His-NS5BΔ21, standard conditions
T2 construct: a variant that lacks the C-terminal 21 amino acids normally found on the mature NS5B; hexa-histidine (N); made in house; host or cells: E. coli JM109 (DE3), pET vector
Experimental: as §1, with “Data were processed on SAS program (SAS Institute Inc., NC, USA) for a non linear regression to obtain the direct binding equilibrium constant and other parameters, and the plot of the regressed fit over the experimental data. An example of a titration curve obtained with probe (i) is shown on FIG. 1.” left out
To obtain Kd values of different compounds competing with these probes (test compounds), this assay was transformed to a more amenable format and a binding assay was made suitable for a 96-well microplate reader. […] The NS5BΔ21-His concentration in the assay was calculated to obtain 70% of binding of the probe; these conditions allowed for the displacement of the probe by test compounds. […]
The Fluorescence polarization assay was also used with other constructs of our HCV polymerase enzyme. […]

GBV-BΔ23-His polymerase = biological target: T3, GBV-BΔ23-His polymerase (Hepatitis GB virus B, UniProt Q69422); test: Fluorescence anisotropy titration of probe with GBV-B polymerase; assay type: binding
T3 construct: The GBV-B polymerase enzyme (termed GBV-BΔ23-His; 3); His tag (C); made in house; host or cells: E. coli JM109 (DE3), pET vector
Experimental: as §1, with “An example of a titration curve obtained with probe (i) is shown on FIG. 1.” left out
(§2) The GBV-B and the HCV 1a polymerases were used to titrate probe ii, using the protocol described in Example 3. […] Kd values for a series of compounds were determined with these two HCV (genotypes 1a and 1b) polymerases, using the assay format described in Example 4.

[1] = biological target: T4, His-NS5BΔ21(H77c, HCV genotype 1a) polymerase (Hepatitis C virus genotype 1a, UniProt P27958); test: Fluorescence anisotropy titration of probe with HCV genotype 1a polymerase; assay type: binding; conditions: Kd of probe for HCV genotype 1a polymerase, standard conditions of Example 3
T4 construct: The HCV genotype 1a NS5B polymerase [termed His-NS5BΔ21 (H77c, 1a); 4]; His tag (N); made in house; host or cells: E. coli JM109 (DE3), pET vector
Experimental: as §1, with “data.” for “data. An example of a titration curve obtained with probe (i) is shown on FIG. 1.”
as §2

[2] = standard conditions of Example 3 (Tris-HCl pH 7.5, 30 mM NaCl)

Compound	Kd (NS5BΔ21-His polymerase; 20 mM Phosphate buffer pH 6.5 in place of Tris) [nM]	Kd (NS5BΔ21-His polymerase; 30 mM NaCl)	Kd (NS5BΔ21-His polymerase; 100 mM NaCl) [nM]	Kd (NS5BΔ21-His polymerase; 150 mM NaCl) [nM]	Kd (NS5BΔ21-His polymerase; 200 mM NaCl) [nM]	Kd (NS5BΔ21-His polymerase; [2])	Kd (His-NS5BΔ21 polymerase)	Kd (GBV-BΔ23-His polymerase; Kd of probe for GBV-BΔ23-His polymerase, estimated value with an incomplete curve)	Kd with GBV-B polymerase relative to HCV polymerases (GBV-BΔ23-His polymerase; fold higher Kd, specificity)	Kd [1]
O=C(O)COc1ccc2[nH]cc(C[C@H](NC(=O)c3ccc4c(c3)nc(-c3ccc(C(=O)NCCNC(=S)Nc5ccc(-c6c7ccc(=O)cc-7oc7cc(O)ccc67)c(C(=O)O)c5)cc3)n4C3CCCCC3)C(=O)O)c2c1 [probe (i), 5-[3-(2-{[1-(4-{5-[(S)-1-Carboxy-2-(5-carboxymethoxy-1-H-indol-3-yl)-ethylcarbamoyl]-1-cyclohexyl-1H-benzimidazol-2-yl}-phenyl)-methanoyl]-amino}-ethyl)-thioureido]-2-(6-hydroxy-3-oxo-3H-xanthen-9-yl)-benzoic acid]	33	15 nM and 15.3 nM	39	78	122	15 nM and 12.6 nM	18 nM and 18.1 nM	–	–	–
O=C(O)COc1ccc2[nH]cc(C[C@H](NC(=O)c3ccc4c(c3)nc(-c3ccc(OCC(=O)NCCNC(=S)Nc5ccc(-c6c7ccc(=O)cc-7oc7cc(O)ccc67)c(C(=O)O)c5)cc3)n4C3CCCCC3)C(=O)O)c2c1 [probe (ii), 5-(3-{2-[2-(4-{5-[(S)-1-Carboxy-2-(5-carboxymethoxy-1-H-indol-3-yl)-ethylcarbamoyl]-1-cyclohexyl-1H-benzimidazol-2-yl}-phenoxy)-ethanoylamino]-ethyl}-thioureido)-2-(6-hydroxy-3-oxo-3H-xanthen-9-yl)-benzoic acid]	–	–	–	–	–	6 nM	–	1800 nM and 1790 nM	at least 100 fold	18 nM and 18.2 nM
